Measured values published in article PMC7180617, “Biological Evaluation of 3-Benzylidenechromanones and Their Spiropyrazolines-Based Analogues” (Molecules, 2020).
Several values for one entry are separate records, joined by “and”; a condition that tells them apart may be missing. Equal values may be shown once.

Assays:
erythrocytes = assay: Red blood cell morphology (phase-contrast microscopy); type: cell-based; settings: 2% erythrocyte suspension, 37 °C, 1 h, phase contrast 400×
Experimental: Studies on erythrocyte morphology complement the erythrotoxicity studies because they provide information on potential immediate interactions of the tested compounds with the erythrocyte lipid bilayer, and the possibility of creating pathological forms of erythrocytes, which are not able to carry oxygen. The effects of the synthesized compounds, and the two reference compounds chromanone and flavanone, on the morphology of erythrocytes is shown in Figure 6. Briefly, 2% RBC suspension was incubated with 0.9% NaCl (control samples) or tested compounds at various concentrations corresponding to their activity towards cancer cell lines.
A 2% erythrocyte suspension was incubated at 37 °C for one hour with various concentrations of synthesized compounds. The morphology of the RBCs was examined by means of a phase contrast Opta-Tech inverted microscope, at 400× magnification, equipped with software (OptaView 7) for image analysis.

WM-115 cells = assay: MTT cytotoxicity assay, WM-115; type: cell-based, human; settings: Homo sapiens, 46 h + 2 h incubation
Experimental: (§1) The first stage of the study used the MTT viability test to determine the cytotoxicity of ten compounds, i.e., 3-arylidenechromanone, 3-arylideneflavanone, spirochromanone and spiro- flavanone analogues, against four human cancer cell lines: HL-60, NALM-6, WM-115 and COLO-205.
(§2) Cytotoxicity was tested against human skin melanoma cells (WM-115, ECACC, Salisbury, UK), two human leukemia cell lines, viz. promyelocytic leukemia (HL-60) and lymphoblastic leukemia (NALM-6), and human colon adenocarcinoma cells (COLO-205). The cell lines COLO-205, WM-115 and HL-60 used in this work came from the ATCC American Type Culture Collection (Manassas, VA, USA), whereas the NALM-6 cell line was purchased from the German Collection of Microorganisms and Cell Cultures (Braunschweig, Germany). The leukaemia cells and colon adenocarcinoma were cultured in RPMI 1640 medium (Invitrogen, Grand Island, NY, USA) supplemented with 10% fetal bovine serum (FBS; Invitrogen) and gentamicin (25 µg/mL; KRKA, Novo Mesto, Slovenia). For melanoma WM-115 cells, Dulbecco’s minimal essential medium (DMEM; Invitrogen) was used. All cell lines were cultured at 37 °C in a humidified atmosphere of 5% CO2 in air.
(§3) For all experiments, the studied compounds were dissolved in DMSO (Sigma-Aldrich) and were further diluted in culture medium to obtain <0.1% DMSO concentration. In each experiment, controls with and without 0.1% DMSO were performed. The cytotoxicity of all compounds and of the reference compounds 4-chromanone and 3-benzylideneflavanone was determined by the MTT assay, i.e., 3-(4,5-dimethylthiazol-2-yl)-2,5-diphenyltetrazolium bromide (Sigma, St. Louis, MO, USA), which measures cellular dehydrogenase activity. Exponentially growing cells were seeded a day before the experiment onto a 96-well microplates (Nunc, Roskilde, Denmark) at a density up to 6–8 × 10^3 cells/well (depending on the cell line). Subsequently, various concentrations of the studied compounds freshly prepared in DMSO and diluted with complete culture medium were added. All compounds were tested for their cytotoxicity at a final concentration of 10^−7–10^−3 M. After 46 h of incubation with the studied compounds, the cells were treated with the MTT reagent and incubation was continued for another two hours. MTT – formazan crystals were dissolved in 20% sodium dodecyl sulphate (SDS, Sigma-Aldrich) and 50% DMF (Sigma-Aldrich) at pH 4.7; following this, absorbance was read at 570 nm on a multifunctional Victor ELISA-plate reader (Perkin Elmer, Turku, Finland). The IC50 values, i.e., the concentration of the test compound required to reduce the cell survival fraction to 50% of controls, were calculated from concentration-response curves and used as a measure of the sensitivity of the cells to a given treatment. As a control, cultured cells were grown in the absence of drugs. The data points represent the means of at least five to ten repeats ± standard deviation (S.D.).

NALM-6 cells = assay: MTT cytotoxicity assay, NALM-6; type: cell-based, human; settings: Homo sapiens, 46 h + 2 h incubation
Experimental: as §1, §2, §3

HL-60 cells [1] = assay: Cell cycle analysis by flow cytometry (propidium iodide); type: cell-based, human; settings: for cell cycle, G1, mean / cell cycle, G2/M, mean / cell cycle, S, mean: mean of n=2; for cell cycle distribution, G1 / cell cycle distribution, G2 / cell cycle distribution, G2/M: HL-60, 20 h, mean ± SD, n = 2
Experimental: The next stage examined the effects of the selected compounds on cell cycle progression in HL-60 leukemia cells. […] One million HL-60 (subline CCL 240; cell type: promyeloblast) cells in 3 mL of RPMI 1640 supplemented with 20% FBS were seeded on 6-well plate. […] Fixed cells were stored in −20 °C for 2–3 days. Before analysis, cells were centrifuged (10 min, 1500 rpm, 4 °C) and washed twice with cold PBS. After the second wash, the cells were suspended in 1mL of PBS containing 100 μg of RNase A and incubated in 37 °C for 10 min. Next, 5 μL of solution of propidium iodide (1 mg/mL) was added to each sample and incubated in dark for 30 min at RT. Stained cells were analyzed by flow cytometry (FACS Calibur, BD Biosciences, San Jose, CA, USA). Data from 10,000 gated cells were collected using CellQuestPro software (Ver 6.0, Becton Dickinson) and cell cycle analysis was performed with ModFit LT software (Ver 3.2, Verity Software House, Topsham, ME, USA).

COLO-205 cells = assay: MTT cytotoxicity assay, COLO-205; type: cell-based, human; settings: Homo sapiens, COLO 205, 48 h, 46 h + 2 h incubation
Experimental: as §1, §2, §3

[2] = Lipophilicity (logP) by RP-TLC; settings: RP-18 F254S TLC plates
Description: Lipophilicity is one of the most important physicochemical properties in pharmaceutical research. It can be considered a key determinant of the pharmacokinetic properties of a drug. It is commonly measured by the partition coefficient between water and n-octanol, being expressed as logP [14]. […] Knowledge of the partition coefficient is valuable: it is frequently used in structure–activity relationship (SAR) and quantitative structure–activity relationship (QSAR) studies. The experimental lipophilicity of the synthesized compounds, viz. benzylideneflavanones, benzylidenechromanones and spiropyrazolines, was determined using RP-TLC. […] It is important to examine the relationship between structure of the compound and its lipophilicity and cytotoxicity.
The RP-TLC experiments were performed on TLC plates (5 × 10 cm) RP-18 F254S (Merck, Darmstadt, Germany). The synthesized compounds were dissolved in N,N-dimethylformamide DMF (2 mg/mL). […] A DMF-water solvent system was used as mobile phase. […] All experiments were performed at room temperature. The logP parameter was calculated using the equation from the calibration curve.

HL-60 cells [3] = assay: MTT cytotoxicity assay, HL-60; type: cell-based, human; settings: Homo sapiens, 46 h + 2 h incubation
Experimental: as §1, §2, §3

[4] = tested on: red blood cells (RBC membrane integrity); assay: Red blood cell lysis assay; type: cell-based; settings: 2% RBC suspension, 37 °C, 1 h
Description: All synthesized compounds with potential biological activity have to be tested for blood compatibility since xenobiotics will react with blood cells upon administration. In this case, biocompatibility refers to the quantification of cellular and plasma components of the blood. The measurement of the integrity of RBC membrane is considered a simple and reliable method for estimating hemocompatibility.
The studies on biological material were approved by the Bioethics Committee of the Medical University of Lodz, Poland (RNN/109/16/KE). The blood samples were obtained from healthy donors at the Blood Donation Centre in Lodz. The procedure for plasma preparation for erythrotoxicity studies was described previously. The influence of synthesized compounds as well as two reference compounds flavanone and chromanone on RBC membrane integrity was performed by lysis assay which was conducted according to our previous protocol. Briefly, 2% RBC suspension in 0.9% NaCl was incubated at 37 °C for one hour with the tested compounds at various concentrations corresponding to their activity towards cancer cell lines or 0.9% NaCl (control). The samples were centrifuged at 3000 rpm for 10 min and the absorbance of the supernatant was measured at 550 nm. The results are presented as percentage of haemolysis where a sample containing 10 μL of 2.0% v/v Triton X-100 was regarded as a positive control contributing to 100% of haemolysis. A sample containing saline solution represented spontaneous haemolysis of RBCs (control). The studies were performed on four biological samples obtained from different blood donors (n = 4). The results are presented as mean ± standard deviation (SD). The coefficient of variability for the method was counted: W = 9.51%, n = 5.

[5] = Figure S3, HL-60, 0.5 × IC50 (µM: quercetin 29, 1 1.5, 7 18, 10 4.7, 11 4.5, 12 6)
[6] = Figure S3, HL-60, 0.5 × IC50, each of two repetitions
[7] = Figure S3, HL-60, 1 × IC50 (µM in parenthesis: quercetin 58, 1 3, 7 35, 10 9.4, 11 9, 12 12)
[8] = Figure S3, HL-60, 1 × IC50 (µM: quercetin 58, 1 3, 7 35, 10 9.4, 11 9, 12 12)
[9] = Figure S3, HL-60, 1 × IC50, each of two repetitions
[10] = 0.5 × IC50 (µM: quercetin 29, 2 1.5, 7 18, 12 6, 11 4.5, 10 4.7)
[11] = 1 × IC50 (µM: quercetin 58, 2 3, 7 35, 12 12, 11 9, 10 9.4)

COc1ccc(/C=C2/C(=O)c3ccccc3OC2c2ccccc2)cc1 (stereo not drawn) [Compound 1, (E)-3-(4-methoxybenzylidene)-2-phenylchroman-4-one]
erythrocyte morphology (in words) (erythrocytes): extensive formation of echinocytes and anisocytes
IC50 (WM-115 cells; WM-115, 48 h, MTT): 58.1 ± 4.93 µM
IC50 (NALM-6 cells; NALM-6, 48 h, MTT): 49.8 ± 2.35 µM
cell cycle, G1, mean (HL-60 cells [1]; [5]): 23,52%
cell cycle, G2/M, mean (HL-60 cells [1]; [5]): 53,45%
cell cycle, S, mean (HL-60 cells [1]; [5]): 23,04%
cell cycle, G2/M, single repetitions (HL-60 cells [1]; [6]): 39,74% and 67,16%
cell cycle, S, single repetitions (HL-60 cells [1]; [6]): 21,38% and 24,69%
cell cycle, G1, mean (HL-60 cells [1]; [7]): 21,31%
cell cycle, G2/M, mean (HL-60 cells [1]; [8]): 53,71%
cell cycle, S, mean (HL-60 cells [1]; [8]): 25,02%
cell cycle, G2/M, single repetitions (HL-60 cells [1]; [9]): 68,86% and 38,56%
cell cycle, S, single repetitions (HL-60 cells [1]; [9]): 17,63% and 32,40%
IC50 (COLO-205 cells): 51 ± 2.3 µM
chromatographic logP [2]: 4.79
IC50 (HL-60 cells [3]; HL-60, 48 h, MTT): 53.4 ± 2.49 µM

O=C1CCOc2ccccc21 [Compound 4-Chromanone, 4-Chromanone, reference compound]
erythrocyte morphology (in words) (erythrocytes): echinocyte formation was observed
IC50 (WM-115 cells; WM-115, 48 h, MTT): > 1000 µM
IC50 (NALM-6 cells; NALM-6, MTT): 674 ± 22.5 µM
effect on RBC hemolysis / erythrocyte membrane integrity (in words) [4]: Neither flavanone nor chromanone was found to have any unfavourable effect on the erythrocyte membrane over the whole concentration range
IC50 (COLO-205 cells): 721.5 ± 6.4 µM
chromatographic logP [2]: 2.19
IC50 (HL-60 cells [3]; HL-60, MTT): 677 ± 32.6 µM

O=C1/C(=C/c2ccccc2)C(c2ccccc2)Oc2ccccc21 (stereo not drawn) [Compound 5, (E)-3-benzylidene-2-phenylchroman-4-one]
erythrocyte morphology (in words) (erythrocytes): echinocytes accounted for the major part of erythrocytes
IC50 (WM-115 cells; WM-115, 48 h, MTT): 47.4 ± 4.62 µM
IC50 (NALM-6 cells; NALM-6, 48 h, MTT): 27 ± 3.1 µM
IC50 (COLO-205 cells): 77.1 ± 1.9 µM
chromatographic logP [2]: 4.9
IC50 (HL-60 cells [3]; HL-60, 48 h, MTT): 33.7 ± 3.87 µM

O=c1c(O)c(-c2ccc(O)c(O)c2)oc2cc(O)cc(O)c12 [Quercetin, reference compound]
IC50 (WM-115 cells; WM-115, MTT): 178 ± 21.5 µM
IC50 (NALM-6 cells; NALM-6, MTT): 77.1 ± 7.8 µM
cell cycle, G1, mean (HL-60 cells [1]; [5]): 14,26%
cell cycle, G2/M, mean (HL-60 cells [1]; [5]): 60,76%
cell cycle, S, mean (HL-60 cells [1]; [5]): 24,99%
cell cycle, G1, single repetitions (HL-60 cells [1]; [6]): 12,59% and 15,93%
cell cycle, G2/M, single repetitions (HL-60 cells [1]; [6]): 60,50% and 61,01%
cell cycle, S, single repetitions (HL-60 cells [1]; [6]): 23,57% and 26,40%
cell cycle, G1, mean (HL-60 cells [1]; [7]): 11,59%
cell cycle, G2/M, mean (HL-60 cells [1]; [8]): 49,04%
cell cycle, S, mean (HL-60 cells [1]; [8]): 39,38%
cell cycle, G1, single repetitions (HL-60 cells [1]; [9]): 12,78% and 10,40%
cell cycle, G2/M, single repetitions (HL-60 cells [1]; [9]): 46,07% and 52,00%
cell cycle, S, single repetitions (HL-60 cells [1]; [9]): 41,15% and 37,60%
cell cycle distribution, G1 (HL-60 cells [1]; [10]): 14.3 ± 2.4%
cell cycle distribution, G2 (HL-60 cells [1]; [10]): 25.0 ± 2.0%
cell cycle distribution, G2/M (HL-60 cells [1]; [10]): 60.8 ± 0.4%
cell cycle distribution, G1 (HL-60 cells [1]; [11]): 11.6 ± 1.7%
cell cycle distribution, G2 (HL-60 cells [1]; [11]): 39.4 ± 2.5%
cell cycle distribution, G2/M (HL-60 cells [1]; [11]): 49.0 ± 4.2%
cells arrested in G2/M phase (HL-60 cells [1]; HL-60, concentrations of IC50 and 0.5 × IC50): 50–60%
IC50 (HL-60 cells [3]; HL-60, 48 h, MTT): 58 ± 4 µM
